# ChEMBL document CHEMBL4265876, “Natural Products with Heteroatom-Rich Ring Systems” (J Nat Prod, 2017)
# Assays:
# Serratia marcescens = experiment: Antibacterial activity against Serratia marcescens; type: functional
# Daucus carota = experiment: Herbicidal activity against Daucus carota; type: functional
# [1] = test system: Auxenochlorella pyrenoidosa; experiment: Algicidal activity against Chlorella pyrenoidosa IAM C-212; type: functional
# [2] = test system: Chlamydomonas reinhardtii; experiment: Algicidal activity against Chlamydomonas reinhardtii IAM C-238; type: functional
# Escherichia coli = experiment: Antibacterial activity against Escherichia coli; type: functional
# [Chlorella] fusca = Algicidal activity against Chlorella fusca IAM C-28; type: functional; conditions: Scenedesmus fuscus
# Nostoc commune = experiment: Growth inhibition of Nostoc commune NIES 24; type: functional
# Armoracia rusticana = experiment: Herbicidal activity against Armoracia rusticana; type: functional
# Trichormus variabilis = experiment: Growth inhibition of Anabaena variabilis NIES 23; type: functional
# Dunaliella tertiolecta = experiment: Algicidal activity against Dunaliella tertiolecta ATCC 30929; type: functional
# Anabaena cylindrica = experiment: Growth inhibition of Anabaena cylindrica NIES 19; type: functional
# Bacillus subtilis = experiment: Antibacterial activity against Bacillus subtilis; type: functional
# Dunaliella salina = experiment: Algicidal activity against Dunaliella salina; type: functional
# Proteus vulgaris = experiment: Antibacterial activity against Proteus vulgaris; type: functional
# Catharanthus roseus = experiment: Herbicidal activity against Catharanthus roseus; type: functional
# [3] = test system: Colletotrichum gloeosporioides; experiment: Antimicrobial activity against Glomerella cingulata; type: functional
# [4] = test system: Trichophyton mentagrophytes; experiment: Antimicrobial activity against Trichophyton mentagrophytes; type: functional
# Cryptococcus neoformans = experiment: Antimicrobial activity against Cryptococcus neoformans; type: functional
# Trichophyton rubrum = experiment: Antifungal activity against Trichophyton rubrum; type: functional
# Pyricularia oryzae = experiment: Antimicrobial activity against Pyricularia orizae; type: functional
# Saccharomyces cerevisiae = experiment: Antimicrobial activity against Saccharomyces cerevisiae; type: functional
# Candida albicans [5] = experiment: Antifungal activity against Candida albicans; type: functional
# MDA-MB-231 = experiment: Cytotoxicity against human MDA231 cells; type: functional, cell-based
# PC-3 = experiment: Cytotoxicity against human PC3 cells; type: functional, cell-based
# HT-29 = experiment: Cytotoxicity against human HT-29 cells; type: functional, cell-based
# MIA PaCa-2 = experiment: Cytotoxicity against human MIAPaCa2 cells; type: functional, cell-based
# UMUC3 = experiment: Cytotoxicity against human UM-UC-3 cells; type: functional, cell-based
# Enterococcus faecalis = experiment: Antimicrobial activity against Streptococcus faecalis; type: functional
# L1210 = experiment: Cytotoxicity against mouse L1210 cells; type: functional, cell-based
# Staphylococcus aureus = experiment: Antibacterial activity against Staphylococcus aureus; type: functional
# Citrobacter = experiment: Antimicrobial activity against Citrobacter; type: functional
# Proteus sp. = experiment: Antimicrobial activity against Proteus sp.; type: functional; conditions: Proteus sp. (in: enterobacteria)
# Salmonella sp. [6] = experiment: Antimicrobial activity against Salmonella sp.; type: functional
# Enterobacter sp. = experiment: Antimicrobial activity against Enterobacter sp.; type: functional
# Klebsiella sp. = experiment: Antimicrobial activity against Klebsiella sp.; type: functional
# HCT-116 = experiment: Cytotoxicity against human HCT116 cells; type: functional, cell-based
# MCF7 = experiment: Cytotoxicity against human MCF7 cells; type: functional, cell-based
# Candida albicans [7] = experiment: Antifungal activity against Candida albicans assessed as inhibition zone at 2 ug/disk; type: functional; conditions: read-out: IZ
# Trypanosoma cruzi [8] = experiment: Antitrypanosomal activity against Trypanosoma cruzi Y by MTT assay; type: functional, organism-based
# Trypanosoma cruzi [9] = experiment: Antitrypanosomal activity against Trypanosoma cruzi Y intracellular amastigotes; type: functional, organism-based
# KB = experiment: Growth inhibition of human KB cells; type: functional, cell-based
# Morganella morganii = experiment: Antibacterial activity against Proteus morgana; type: functional
# Salmonella sp. [10] = experiment: Antibacterial activity against Salmonella sp.; type: functional
# Klebsiella pneumoniae = experiment: Antibacterial activity against Klebsiella pneumoniae; type: functional
# Haemophilus = experiment: Antibacterial activity against Haemophilus sp.; type: functional
# Providencia rettgeri = experiment: Antibacterial activity against Proteus rettgeri; type: functional
# Herpesviridae sp. = experiment: Antiviral activity against Herpes simplex virus infected in mouse assessed as mouse survival at 400 mg/kg, sc for 28 days; type: functional; conditions: 672 h
# Streptococcus pyogenes = experiment: Antibacterial activity against Streptococcus hemolyticus; type: functional
# Pasteurella multocida = experiment: Antibacterial activity against Pasteurella multocida; type: functional
smiles,measurement,setting,value
Cn1ncnc2c(=O)[nH]nc1-2,MIC,Serratia marcescens,7 µg/mL
same,MIC,Daucus carota,1 to 2 µg/mL
same,MIC,[1],30 µM
same,MIC,[2],30 µM
same,MIC,Escherichia coli,8 µg/mL
same,MIC,[Chlorella] fusca,5 µM
same,MIC,Nostoc commune,20 µM
same,MIC,Armoracia rusticana,1 to 2 µg/mL
same,MIC,Trichormus variabilis,30 µM
same,MIC,Dunaliella tertiolecta,20 µM
same,MIC,Anabaena cylindrica,30 µM
same,MIC,Bacillus subtilis,6 µg/mL
same,MIC,Dunaliella salina,15 µM
same,MIC,Proteus vulgaris,12 µg/mL
same,MIC,Catharanthus roseus,1 to 2 µg/mL
C1SSCSSS1,MIC,[3],12.5 µg/mL
same,MIC,[4],3.12 µg/mL
same,MIC,Cryptococcus neoformans,6.25 µg/mL
same,MIC,Trichophyton rubrum,3.12 µg/mL
same,MIC,Pyricularia oryzae,12.5 µg/mL
same,MIC,Saccharomyces cerevisiae,6.25 µg/mL
same,MIC,Bacillus subtilis,50 µg/mL
same,MIC,Candida albicans [5],6.25 µg/mL
same,MIC,Proteus vulgaris,50 µg/mL
COc1cc(CCN)c2c(c1OC)SS[S+]2[O-] (stereo not drawn),IC50,MDA-MB-231,2.4 to 11.9 nM
same,IC50,PC-3,2.4 to 11.9 nM
same,IC50,HT-29,2.4 to 11.9 nM
same,IC50,MIA PaCa-2,2.4 to 11.9 nM
same,IC50,UMUC3,2.4 to 11.9 nM
COc1c(O)cc(CCN)c2c1SSSSS2,MIC,Enterococcus faecalis,0.1 to 0.6 µg/mL
same,IC50,L1210,1 µg/mL
same,MIC,Staphylococcus aureus,0.1 to 0.6 µg/mL
same,MIC,Escherichia coli,0.1 to 0.6 µg/mL
same,MIC,[4],20 µg/mL
same,MIC,Citrobacter,0.1 to 0.6 µg/mL
same,MIC,Proteus sp.,0.1 to 0.6 µg/mL
same,MIC,Salmonella sp. [6],0.1 to 0.6 µg/mL
same,MIC,Enterobacter sp.,0.1 to 0.6 µg/mL
same,MIC,Candida albicans [5],40 µg/mL
same,MIC,Klebsiella sp.,0.1 to 0.6 µg/mL
COc1cc(CCN)c2c(c1OC)SSSSS2 [VARACIN],IC90,HCT-116,0.05 µg/mL
same,IC50,MCF7,1.69 nM
same,IC50,PC-3,0.6 nM
same,zone of inhibition at 2 µg/disc,Candida albicans [7],14 mm
same,IC50,MIA PaCa-2,1.8 nM
C=C(C)C1CNC(NCC=C(C)C)=NO1 (stereo not drawn),IC50,Trypanosoma cruzi [8],93 µg/mL
same,IC50,Trypanosoma cruzi [9],27 µg/mL
Nc1ncn([C@@H]2O[C@H](CO)[C@@H](O)[C@H]2O)c(=O)n1 [AZACITIDINE],MIC,Escherichia coli,0.01 µg/mL
same,IC50,KB,0.23 µg/mL
CN1CN([C@H]2C[C@H](O)[C@@H](CO)O2)C(=O)NC1=O,MIC,Serratia marcescens,2 to 125 µg/mL
same,Activity,Morganella morganii,2 to 125 µg/mL
same,Activity,Salmonella sp. [10],2 to 125 µg/mL
same,Activity,Klebsiella pneumoniae,2 to 125 µg/mL
same,Activity,Haemophilus,2 to 125 µg/mL
same,Activity,Providencia rettgeri,2 to 125 µg/mL
same,survival at 400 mg/kg,Herpesviridae sp.,50%
same,Activity,Streptococcus pyogenes,2 to 125 µg/mL
same,Activity,Pasteurella multocida,2 to 125 µg/mL
